Tests used:
[1] = molecular target: T1, His6-tagged HIV-1 integrase / flag-LEDGF/p75 interaction (Human immunodeficiency virus type 1 group M subtype B, UniProt P04585); assay: AlphaScreen assay of LEDGF-integrase interaction inhibition; type: binding; details: for IC50: compounds tested from 0.1 up to 100 μM; for inhibition at 100 µM: read-out: % inhibition at 100 μM in IN-LEDGF alphascreen (values marked *)
T1 construct: His6-tagged HIV-1 integrase; made in house
Experimental: Alphascreen Assay to Measure the LEDGF-Integrase Interaction Inhibitory Activity of Compounds of the Invention
The AlphaScreen assay was performed according to the manufacturer's protocol (Perkin Elmer, Benelux). Reactions were performed in 25 μl final volume in 384-well Optiwell™ microtiter plates (Perkin Elmer). The reaction buffer contained 25 mM Tris-HCl (pH 7.4), 150 mM NaCl, 1 mM MgCl2, 0.01% (v/v) Tween-20 and 0.1% (w/v) bovine serum albumin. His6-tagged integrase (300 nM final concentration) was incubated with the compounds for 30 min at 4° C. The compounds were added at varying concentrations spanning a wide range from 0.1 up to 100 μM. Afterwards 100 nM flag-LEDGF/p75 was added and incubation was prolonged for an additional hour at 4° C. Subsequently 5 μl of Ni-chelate-coated acceptor beads and 5 μl anti-flag donor beads were added to a final concentration of 20 μg/ml of both beads. Proteins and beads were incubated for 1 h at 30° C. in order to allow association to occur. Exposure of the reaction to direct light was omitted as much as possible and the emission of light from the acceptor beads was measured in the EnVision plate reader (Perkin Elmer, Benelux) and analyzed using the EnVision manager software. IN/DNA binding was analyzed in a similar setting using His6-tagged integrase (1 μM final concentration) and an oligodeoxynucleotide mimicking the IN ELISA oligonucleotide substrate (30 nM final concentration). Counterscreens with JPO2 or PogZ, respectively, were essentially performed as described previously.
Expression and purification of recombinant proteins: His6-tagged HIV-1 integrase, 3×flag-tagged LEDGF/p75, MBP-JPO2 and MBP-PogZ were purified for AlphaScreen applications as described previously 23,25,56.

[2] = Cytotoxicity in mock-infected MT-4 cells (MTT); type: cell-based; details: human, read-out: CC50 in MT4-IIIB (μm)
Experimental: A rapid and automated assay procedure was used for the in vitro evaluation of anti-HIV agents. An HTLV-1 transformed T4-cell line MT-4, which was previously shown to be highly susceptible to and permissive for HIV infection, served as the target cell line. Inhibition of the HIV-induced cytopathogenic effect was used as the end point. The viability of both HIV-and mock-infected cells was assessed spectrophotometrically via in situ reduction of 3-(4,5-dimethylthiazol-2-yl)-2,5-diphenyltetrazolium bromide (MTT). The 50% cytotoxic concentration (CC50 in μg/ml) was defined as the concentration of compound that reduced the absorbance of the mock-infected control sample by 50%. The percent protection achieved by the compound in HIV-infected cells was calculated by the following formula: […]
Examples of inhibition of cell proliferation by particular compounds of formula (I) can be found by looking at the respective CC50 values in the MT-4 cell line.
Cells: MT-4 cells (Miyoshi et al., 1982) were grown and maintained in RPMI 1640 medium supplemented with 10% heat-inactivated fetal calf serum, 2 mM I-glutamine, 0.1% sodium bicarbonate, and 20 æg of gentamicin per ml.

HIV (MT4-IIIB) = assay: Anti-HIV activity: inhibition of HIV-induced cytopathogenic effect in MT-4 cells (MTT); type: cell-based; details: Human immunodeficiency virus 1, IIIB

SMILES	IC50 [1] [µM]	CC50 [2] [µM]	EC50 (HIV (MT4-IIIB)) [µM]	inhibition at 100 µM [1] [%]
CCCC(C(=O)O)c1c(C)nc(N(C)C)nc1-c1ccccc1 (stereo not drawn) [cpd 2]	36.7	164		
CCCC(C(=O)O)c1c(C)nc(/C=C/c2ccccc2)nc1-c1ccccc1 (stereo not drawn) [cpd 6]	45.6	98.7		
CCCC(C(=O)O)c1c(C)nc(-c2ccc(C)cc2)nc1-c1ccc(C)cc1 (stereo not drawn) [cpd 10]	30.9	110	35.9	
CCCC(C(=O)O)c1c(C)nc(N(C)C2CCCCC2)nc1-c1ccc(C)cc1 (stereo not drawn) [cpd 12]	25.2	81.8	48.3	
CCCC(C(=O)O)c1c(C)nc(-c2ccccc2)nc1-c1ccc(C)cc1 (stereo not drawn) [cpd 14]	22.1	120	23.4	
CCCC(C(=O)O)c1c(C)nc(-c2ccccc2Cl)nc1-c1ccccc1 (stereo not drawn) [cpd 16]		> 250	152	
CCCC(C(=O)O)c1c(C)nc(-c2ccccc2Cl)nc1-c1ccc(C)cc1 (stereo not drawn) [cpd 18]	89.9	125		
CCCC(C(=O)O)c1c(C)nc(N2CCCCC2)nc1-c1ccccc1 (stereo not drawn) [cpd 20]	12.5	120	15.9	
CCCC(C(=O)O)c1c(C)nc(-c2ccccc2)nc1-c1ccccc1 (stereo not drawn) [cpd 24]		> 125	80	
CCCC(C(=O)O)c1c(C)nc(-c2ccccc2)nc1-c1cccc(O)c1 (stereo not drawn) [cpd 26]		> 125	70.9	
CCCC(C(=O)O)c1c(C)nc(N2CCN(C)CC2)nc1-c1ccc(C)cc1 (stereo not drawn) [cpd 32]	53.7	> 250		
CCCC(C(=O)O)c1c(C)nc(N2CC(C)CC(C)C2)nc1-c1ccc(C)cc1 (stereo not drawn) [cpd 34]	17.5	57		
CCCC(C(=O)O)c1c(C)nc(N2CCCCCC2)nc1-c1ccc(C)cc1 (stereo not drawn) [cpd 36]	11.2	58		
CCCC(C(=O)O)c1c(C)nc(N2CCc3ccccc3C2)nc1-c1ccc(C)cc1 (stereo not drawn) [cpd 42]	17.3	26		
CCCC(C(=O)O)c1c(C)nc(N2CCCN(Cc3ccccc3)CC2)nc1-c1ccc(C)cc1 (stereo not drawn) [cpd 44]	11	7		
CCCC(C(=O)O)c1c(C)nc(N2CCCC(c3nc(C(C)C)no3)C2)nc1-c1ccc(C)cc1 (stereo not drawn) [cpd 46]	80.8	42		
CCCC(C(=O)O)c1c(C)nc(N2CCCC(Oc3ccccc3)C2)nc1-c1ccc(C)cc1 (stereo not drawn) [cpd 48]	9.49	25		
CCCC(C(=O)O)c1c(C)nc(N2CCCC(c3ccccc3)C2)nc1-c1ccc(C)cc1 (stereo not drawn) [cpd 50]	82.2	28		
CCCC(C(=O)O)c1c(C)nc(N2CC[C@H](N(C)C)C2)nc1-c1ccc(C)cc1 (stereo partly drawn) [cpd 52]	3.62	101		
CCCC(C(=O)O)c1c(C)nc(N2CCC(NC(=O)c3ccccc3)CC2)nc1-c1ccc(C)cc1 (stereo not drawn) [cpd 54]	3.9	67		
CCCC(C(=O)O)c1c(C)nc(-c2ccccc2)nc1N1CCN(C)CC1 (stereo not drawn) [cpd 64]		> 250	197	
CCCC(C(=O)O)c1c(C)nc(-c2ccccc2)nc1-c1ccc(C)c(C)c1 (stereo not drawn) [cpd 66]	28.3	120		

SMILES	IC50 [1] [µM]	CC50 [2] [µM]	EC50 (HIV (MT4-IIIB)) [µM]	inhibition at 100 µM [1] [%]
CCCC(C(=O)O)c1c(C)nc(-c2ccccc2)nc1-c1ccc2ccccc2c1 (stereo not drawn) [cpd 68]		53		61
CCCC(C(=O)O)c1c(C)nc(-c2ccccc2)nc1-c1ccc2c(ccn2C)c1 (stereo not drawn) [cpd 74]		129		46
CCCC(C(=O)O)c1c(C)nc(-c2ccccc2)nc1N1CCc2ccccc2C1 (stereo not drawn) [cpd 76]	93	74		
CCCC(C(=O)O)c1c(C)nc(-c2ccccc2)nc1Oc1ccccc1 (stereo not drawn) [cpd 78]		102		58
CCCC(C(=O)O)c1c(C)nc(-c2ccccc2)nc1-c1ccc2c(c1)OCCN2C (stereo not drawn) [cpd 86]		118		46
CCCC(C(=O)O)c1c(C)nc(-c2ccccc2)nc1-c1ccc2sccc2c1 (stereo not drawn) [cpd 88]	66.7	121		
CCCC(C(=O)O)c1c(C)nc(-c2ccccc2)nc1-c1ccc2c(c1)CCCO2 (stereo not drawn) [cpd 90]	61.9	125		
CCCC(C(=O)O)c1c(C)nc(-c2ccccc2)nc1-c1ccc2ccn(C)c2c1 (stereo not drawn) [cpd 92]		113		51
CCCC(C(=O)O)c1c(C)nc(-c2ccccc2)nc1-c1ccc2[nH]c(=O)[nH]c2c1 (stereo not drawn) [cpd 100]	70.8	96		
CCCC(C(=O)O)c1c(C)nc(-c2ccccc2)nc1-c1ccc(C(C)C)cc1 (stereo not drawn) [cpd 106]	56.6	32		
CCCC(C(=O)O)c1c(C)nc(-c2ccccc2)nc1-c1ccc(C(F)(F)F)cc1 (stereo not drawn) [cpd 108]	100	47		
CCCC(C(=O)O)c1c(C)nc(-c2ccccc2)nc1-c1ccc(Cl)cc1OC (stereo not drawn) [cpd 110]		94		40
CCCC(C(=O)O)c1c(C)nc(-c2ccccc2)nc1Cc1ccccc1 (stereo not drawn) [cpd 117]	6.1	> 250		
CCCC(C(=O)O)c1c(C)nc(-c2ccccc2)nc1-c1ccc(C)cc1OC (stereo not drawn) [cpd 120]		124		48
Cc1ccc(-c2nc(N3CCCCC3)nc(C)c2C(Cc2ccccc2)C(=O)O)cc1 (stereo not drawn) [cpd 126]	27	67		
CCCC(C(=O)O)c1c(C)nc(N2CCCCC2)nc1-c1cc(F)c(F)cc1F (stereo not drawn) [cpd 142]	50.5	79		
Cc1ccc(-c2nc(N3CCCCC3)nc(C)c2C(OC(C)(C)C)C(=O)O)cc1 (stereo not drawn) [cpd 154]		118	1.06	
CCCC(C(=O)O)c1c(C)nc(-c2ccccc2O)nc1-c1ccc(C)cc1 (stereo not drawn) [cpd 158]		119	17.8	
CCCC(C(=O)O)c1c(C)nc(-c2cnn(C)c2)nc1-c1ccc(C)cc1 (stereo not drawn) [cpd 162]		> 250	72.1	
CCCC(C(=O)O)c1c(C)nc(NCc2ccccc2)nc1-c1ccc(C)cc1 (stereo not drawn) [cpd 168]		128	23.9	
CCCC(C(=O)O)c1c(C)nc(NCC(C)(C)C)nc1-c1ccc(C)cc1 (stereo not drawn) [cpd 174]		155	25	

Reference: patent US8906906B2, “Viral replication inhibitors” (Katholieke Universiteit Leuven, priority 2009, dated 2014)
